Source: the kinase profiling compilation of Christmann-Franck et al. (2016)

Key:
Experiment in all cases: radiometric filter-binding kinase assay, Kinase HotSpot
Details in all cases: compound 0.5 µM; ATP 10 µM
DAPK2 (human) = DAPK2 (human) (UniProt Q9UIK4)
JAK3 JH1 JH2 (human) = JAK3 JH1 JH2 (human) (UniProt P52333)
GRK7 (human) = GRK7 (human) (UniProt Q8WTQ7)
PRKD2 (human) = PRKD2 (human) (UniProt Q9BZL6)
HIPK1 (human) = HIPK1 (human) (UniProt Q86Z02)
FES (human) = FES (human) (UniProt P07332)
FES (human), sequence (P07332 whole entry, looked up): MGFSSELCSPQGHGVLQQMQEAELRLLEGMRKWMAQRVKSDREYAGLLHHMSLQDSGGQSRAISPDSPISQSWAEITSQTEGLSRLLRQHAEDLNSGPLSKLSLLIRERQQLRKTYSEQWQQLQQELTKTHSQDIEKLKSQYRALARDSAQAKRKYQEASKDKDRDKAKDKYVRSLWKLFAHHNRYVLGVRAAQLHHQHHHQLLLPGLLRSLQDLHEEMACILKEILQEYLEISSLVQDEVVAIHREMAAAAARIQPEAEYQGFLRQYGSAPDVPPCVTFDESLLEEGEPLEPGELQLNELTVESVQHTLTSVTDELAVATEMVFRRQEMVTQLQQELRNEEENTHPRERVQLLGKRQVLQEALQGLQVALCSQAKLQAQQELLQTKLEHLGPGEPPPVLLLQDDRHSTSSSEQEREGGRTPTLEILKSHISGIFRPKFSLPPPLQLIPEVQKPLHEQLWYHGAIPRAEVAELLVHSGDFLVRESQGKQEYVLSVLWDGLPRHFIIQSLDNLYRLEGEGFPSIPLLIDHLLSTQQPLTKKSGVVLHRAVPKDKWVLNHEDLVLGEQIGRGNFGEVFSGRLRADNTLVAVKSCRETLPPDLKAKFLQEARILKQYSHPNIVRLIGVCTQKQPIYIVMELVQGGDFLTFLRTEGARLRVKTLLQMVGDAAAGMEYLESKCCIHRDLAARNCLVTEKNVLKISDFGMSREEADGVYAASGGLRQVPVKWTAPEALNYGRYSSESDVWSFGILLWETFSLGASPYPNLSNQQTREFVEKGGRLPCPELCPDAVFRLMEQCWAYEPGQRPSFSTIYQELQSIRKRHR

BLK (human) = BLK (human) (UniProt P51451)
CDK2 CCNA2 (human) = CDK2 CCNA2 (human) (UniProt P24941+P20248)
[1] = target: TYK2 JH1 catalytic (human) (UniProt P29597)
RPS6KA4 KD2 (human) = RPS6KA4 KD2 (human) (UniProt O75676)
CAMK2B (human) = CAMK2B (human) (UniProt Q13554)
MELK (human) = MELK (human) (UniProt Q14680)
MELK (human), sequence (Q14680 whole entry, looked up): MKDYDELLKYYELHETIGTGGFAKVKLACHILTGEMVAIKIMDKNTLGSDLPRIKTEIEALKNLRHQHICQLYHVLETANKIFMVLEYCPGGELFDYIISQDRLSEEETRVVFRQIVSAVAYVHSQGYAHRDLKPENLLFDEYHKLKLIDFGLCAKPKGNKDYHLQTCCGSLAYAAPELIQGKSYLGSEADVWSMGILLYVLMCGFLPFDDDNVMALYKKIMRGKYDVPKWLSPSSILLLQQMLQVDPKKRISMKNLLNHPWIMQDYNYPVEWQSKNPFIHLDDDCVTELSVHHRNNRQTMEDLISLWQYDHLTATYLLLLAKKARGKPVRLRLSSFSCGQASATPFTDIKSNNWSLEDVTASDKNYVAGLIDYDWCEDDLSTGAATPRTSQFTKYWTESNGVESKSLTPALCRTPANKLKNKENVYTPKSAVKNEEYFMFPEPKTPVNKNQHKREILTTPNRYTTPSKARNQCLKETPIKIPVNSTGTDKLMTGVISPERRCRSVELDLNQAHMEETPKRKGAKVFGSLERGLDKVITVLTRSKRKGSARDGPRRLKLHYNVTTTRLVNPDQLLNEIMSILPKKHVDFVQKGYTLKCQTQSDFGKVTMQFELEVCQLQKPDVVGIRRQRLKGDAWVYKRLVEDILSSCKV

FGFR1 (human) = FGFR1 (human) (UniProt P11362)
NTRK1 (human) = NTRK1 (human) (UniProt P04629)
STK11 (human) = STK11 (human) (UniProt Q15831)
MAPK3 (human) = MAPK3 (human) (UniProt P27361)
RPS6KA5 KD2 (human) = RPS6KA5 KD2 (human) (UniProt O75582)
PHKG2 (human) = PHKG2 (human) (UniProt P15735)
DDR2 (human) = DDR2 (human) (UniProt Q16832)
CDK5 CDK5R1 p25 (human) = CDK5 CDK5R1 p25 (human) (UniProt Q00535+Q15078)
FLT3 (human) = FLT3 (human) (UniProt P36888)
TEC (human) = TEC (human) (UniProt P42680)
JAK2 JH1 JH2 (human) = JAK2 JH1 JH2 (human) (UniProt O60674)
PDGFRB (human) = PDGFRB (human) (UniProt P09619)
PDGFRB (human), sequence (P09619 whole entry, looked up): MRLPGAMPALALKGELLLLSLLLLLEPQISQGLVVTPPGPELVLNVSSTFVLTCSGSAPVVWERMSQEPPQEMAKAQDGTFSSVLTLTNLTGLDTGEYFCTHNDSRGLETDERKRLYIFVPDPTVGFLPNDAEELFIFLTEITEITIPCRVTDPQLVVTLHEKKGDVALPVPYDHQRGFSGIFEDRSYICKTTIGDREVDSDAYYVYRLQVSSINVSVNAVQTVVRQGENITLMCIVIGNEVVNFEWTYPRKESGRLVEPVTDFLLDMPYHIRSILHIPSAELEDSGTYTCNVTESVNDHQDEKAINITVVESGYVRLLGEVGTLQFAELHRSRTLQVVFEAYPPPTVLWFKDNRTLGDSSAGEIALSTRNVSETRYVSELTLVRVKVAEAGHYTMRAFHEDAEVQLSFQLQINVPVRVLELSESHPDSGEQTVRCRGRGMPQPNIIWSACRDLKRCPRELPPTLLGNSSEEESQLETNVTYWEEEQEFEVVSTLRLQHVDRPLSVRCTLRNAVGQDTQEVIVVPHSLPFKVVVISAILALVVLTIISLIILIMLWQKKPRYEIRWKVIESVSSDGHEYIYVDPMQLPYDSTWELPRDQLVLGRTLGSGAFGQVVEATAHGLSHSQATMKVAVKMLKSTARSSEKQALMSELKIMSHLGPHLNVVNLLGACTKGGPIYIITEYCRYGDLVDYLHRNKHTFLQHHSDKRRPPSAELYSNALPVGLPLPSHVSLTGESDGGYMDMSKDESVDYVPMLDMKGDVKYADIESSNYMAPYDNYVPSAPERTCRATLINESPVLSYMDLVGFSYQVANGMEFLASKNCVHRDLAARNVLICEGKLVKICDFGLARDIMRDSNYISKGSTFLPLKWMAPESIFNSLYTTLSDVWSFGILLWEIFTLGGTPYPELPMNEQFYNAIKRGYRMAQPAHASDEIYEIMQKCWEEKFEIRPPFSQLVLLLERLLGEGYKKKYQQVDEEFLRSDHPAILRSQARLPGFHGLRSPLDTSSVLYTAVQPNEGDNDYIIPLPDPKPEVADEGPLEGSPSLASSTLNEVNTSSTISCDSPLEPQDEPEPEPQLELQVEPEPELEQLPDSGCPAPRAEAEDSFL

CSNK1G3 (human) = CSNK1G3 (human) (UniProt Q9Y6M4)
SLK (human) = SLK (human) (UniProt Q9H2G2)
PDGFRA (human) = PDGFRA (human) (UniProt P16234)
TXK (human) = TXK (human) (UniProt P42681)
PDPK1 (human) = PDPK1 (human) (UniProt O15530)
CAMKK1 (human) = CAMKK1 (human) (UniProt Q8N5S9)
MAP2K1 (human) = MAP2K1 (human) (UniProt Q02750)
PIM3 (human) = PIM3 (human) (UniProt Q86V86)
LIMK1 (human) = LIMK1 (human) (UniProt P53667)
PAK3 (human) = PAK3 (human) (UniProt O75914)
ITK (human) = ITK (human) (UniProt Q08881)
PRKCE (human) = PRKCE (human) (UniProt Q02156)
AKT1 (human) = AKT1 (human) (UniProt P31749)
AKT1 (human), sequence (P31749 whole entry, looked up): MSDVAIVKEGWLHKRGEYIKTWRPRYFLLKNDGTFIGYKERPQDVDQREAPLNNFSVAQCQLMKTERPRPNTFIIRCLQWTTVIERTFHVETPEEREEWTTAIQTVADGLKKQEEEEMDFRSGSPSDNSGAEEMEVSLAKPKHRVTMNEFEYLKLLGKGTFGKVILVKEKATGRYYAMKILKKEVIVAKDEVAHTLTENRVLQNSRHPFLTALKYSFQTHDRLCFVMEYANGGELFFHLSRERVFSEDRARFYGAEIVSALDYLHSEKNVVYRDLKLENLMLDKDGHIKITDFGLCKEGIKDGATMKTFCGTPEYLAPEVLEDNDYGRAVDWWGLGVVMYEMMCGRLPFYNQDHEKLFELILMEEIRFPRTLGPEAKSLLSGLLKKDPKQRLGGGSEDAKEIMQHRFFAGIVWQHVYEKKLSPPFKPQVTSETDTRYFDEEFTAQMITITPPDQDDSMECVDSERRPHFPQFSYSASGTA

DSTYK (human) = DSTYK (human) (UniProt Q6XUX3)
MAPKAPK2 (human) = MAPKAPK2 (human) (UniProt P49137)
MAPKAPK5 (human) = MAPKAPK5 (human) (UniProt Q8IW41)
PAK4 (human) = PAK4 (human) (UniProt O96013)
PTK2 (human) = PTK2 (human) (UniProt Q05397)

GRK7 (human), sequence (Q8WTQ7 whole entry, looked up): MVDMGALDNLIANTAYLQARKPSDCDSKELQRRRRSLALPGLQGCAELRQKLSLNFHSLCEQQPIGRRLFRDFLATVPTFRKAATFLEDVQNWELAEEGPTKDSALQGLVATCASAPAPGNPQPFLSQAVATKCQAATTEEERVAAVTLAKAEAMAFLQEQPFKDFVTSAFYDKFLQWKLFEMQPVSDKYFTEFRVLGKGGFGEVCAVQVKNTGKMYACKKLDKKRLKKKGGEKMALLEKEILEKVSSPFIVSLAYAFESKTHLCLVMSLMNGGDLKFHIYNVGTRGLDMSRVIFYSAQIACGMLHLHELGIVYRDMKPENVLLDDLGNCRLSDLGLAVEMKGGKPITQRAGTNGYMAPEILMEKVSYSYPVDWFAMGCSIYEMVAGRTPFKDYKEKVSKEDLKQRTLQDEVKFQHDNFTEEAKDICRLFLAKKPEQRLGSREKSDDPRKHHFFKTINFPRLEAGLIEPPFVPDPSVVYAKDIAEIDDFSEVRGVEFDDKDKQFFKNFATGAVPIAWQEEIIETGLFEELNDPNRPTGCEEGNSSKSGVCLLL
JAK3 JH1 JH2 (human), sequence (P52333 whole entry, looked up): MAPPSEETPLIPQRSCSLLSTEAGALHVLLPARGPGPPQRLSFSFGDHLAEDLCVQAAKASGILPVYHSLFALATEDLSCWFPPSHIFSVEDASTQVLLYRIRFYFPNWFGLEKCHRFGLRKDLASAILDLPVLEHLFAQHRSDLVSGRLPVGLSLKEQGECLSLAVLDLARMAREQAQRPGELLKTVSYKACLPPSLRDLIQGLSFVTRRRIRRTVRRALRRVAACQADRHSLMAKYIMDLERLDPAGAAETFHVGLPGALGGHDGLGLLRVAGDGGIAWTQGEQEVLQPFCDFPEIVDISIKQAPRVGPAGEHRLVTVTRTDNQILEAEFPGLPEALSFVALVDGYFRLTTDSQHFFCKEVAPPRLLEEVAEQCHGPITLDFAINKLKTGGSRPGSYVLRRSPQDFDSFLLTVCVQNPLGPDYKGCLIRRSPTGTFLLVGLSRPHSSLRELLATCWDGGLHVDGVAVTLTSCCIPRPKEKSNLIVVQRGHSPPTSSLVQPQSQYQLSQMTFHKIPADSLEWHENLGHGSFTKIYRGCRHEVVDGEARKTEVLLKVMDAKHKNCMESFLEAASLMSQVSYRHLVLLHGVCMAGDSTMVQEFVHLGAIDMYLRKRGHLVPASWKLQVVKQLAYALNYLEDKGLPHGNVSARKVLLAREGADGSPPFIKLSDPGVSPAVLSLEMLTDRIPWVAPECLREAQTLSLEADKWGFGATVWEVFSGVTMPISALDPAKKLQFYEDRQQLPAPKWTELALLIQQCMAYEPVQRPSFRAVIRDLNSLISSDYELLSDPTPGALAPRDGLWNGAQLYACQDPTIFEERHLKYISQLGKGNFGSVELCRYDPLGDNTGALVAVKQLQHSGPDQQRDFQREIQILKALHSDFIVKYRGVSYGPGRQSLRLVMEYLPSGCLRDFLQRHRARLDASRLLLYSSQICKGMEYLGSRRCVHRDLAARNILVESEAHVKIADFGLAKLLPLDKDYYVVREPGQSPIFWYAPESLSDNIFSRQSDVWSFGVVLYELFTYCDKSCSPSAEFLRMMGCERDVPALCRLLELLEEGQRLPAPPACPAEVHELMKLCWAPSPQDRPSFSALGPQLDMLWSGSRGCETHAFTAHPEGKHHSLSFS

Structure (SMILES): Cn1sc(=O)n(Cc2ccccc2)c1=O
- residual activity (DAPK2 (human)): 94%
- residual activity (JAK3 JH1 JH2 (human)): 106%
- residual activity (GRK7 (human)): 112%
- residual activity (PRKD2 (human)): 95.1%
- residual activity (HIPK1 (human)): 92.3%
- residual activity (FES (human)): 101%
- residual activity (BLK (human)): 101%
- residual activity (CDK2 CCNA2 (human)): 100%
- residual activity [1]: 96%
- residual activity (RPS6KA4 KD2 (human)): 99%
- residual activity (CAMK2B (human)): 102%
- residual activity (MELK (human)): 99.3%
- residual activity (FGFR1 (human)): 95.6%
- residual activity (NTRK1 (human)): 99.3%
- residual activity (STK11 (human)): 106%
- residual activity (MAPK3 (human)): 90.4%
- residual activity (RPS6KA5 KD2 (human)): 108%
- residual activity (PHKG2 (human)): 90.6%
- residual activity (DDR2 (human)): 102%
- residual activity (CDK5 CDK5R1 p25 (human)): 103%
- residual activity (FLT3 (human)): 99.1%
- residual activity (TEC (human)): 117%
- residual activity (JAK2 JH1 JH2 (human)): 91.6%
- residual activity (PDGFRB (human)): 87.3%
- residual activity (CSNK1G3 (human)): 114%
- residual activity (SLK (human)): 84.7%
- residual activity (PDGFRA (human)): 84.1%
- residual activity (TXK (human)): 99.8%
- residual activity (PDPK1 (human)): 95.5%
- residual activity (CAMKK1 (human)): 114%
- residual activity (MAP2K1 (human)): 83.8%
- residual activity (PIM3 (human)): 120%
- residual activity (LIMK1 (human)): 101%
- residual activity (PAK3 (human)): 100%
- residual activity (ITK (human)): 93.2%
- residual activity (PRKCE (human)): 94.8%
- residual activity (AKT1 (human)): 101%
- residual activity (DSTYK (human)): 92.9%
- residual activity (MAPKAPK2 (human)): 102%
- residual activity (MAPKAPK5 (human)): 94.2%
- residual activity (PAK4 (human)): 104%
- residual activity (PTK2 (human)): 99.5%

Structure (SMILES): O=C(Nc1cccc(Nc2cc(Nc3cccc(C(F)(F)F)c3)ncn2)c1)C1CC1
- residual activity (DAPK2 (human)): 99%
- residual activity (JAK3 JH1 JH2 (human)): 106%
- residual activity (GRK7 (human)): 99%
- residual activity (PRKD2 (human)): 103%
- residual activity (HIPK1 (human)): 99.7%
- residual activity (FES (human)): 101%
- residual activity (BLK (human)): 101%
- residual activity (CDK2 CCNA2 (human)): 99.5%
- residual activity [1]: 102%
- residual activity (RPS6KA4 KD2 (human)): 100%
- residual activity (CAMK2B (human)): 105%
- residual activity (MELK (human)): 104%
- residual activity (FGFR1 (human)): 103%
- residual activity (NTRK1 (human)): 99.6%
- residual activity (STK11 (human)): 100%
- residual activity (MAPK3 (human)): 101%
- residual activity (RPS6KA5 KD2 (human)): 103%
- residual activity (PHKG2 (human)): 101%
- residual activity (DDR2 (human)): 106%
- residual activity (CDK5 CDK5R1 p25 (human)): 99.5%
- residual activity (FLT3 (human)): 97.9%
- residual activity (TEC (human)): 115%
- residual activity (JAK2 JH1 JH2 (human)): 99.5%
- residual activity (PDGFRB (human)): 101%
- residual activity (CSNK1G3 (human)): 107%
- residual activity (SLK (human)): 102%
- residual activity (PDGFRA (human)): 86.4%
- residual activity (TXK (human)): 97.1%
- residual activity (PDPK1 (human)): 100%
- residual activity (CAMKK1 (human)): 116%
- residual activity (MAP2K1 (human)): 98.9%
- residual activity (PIM3 (human)): 133%
- residual activity (LIMK1 (human)): 95.9%
- residual activity (PAK3 (human)): 101%
- residual activity (ITK (human)): 97.2%
- residual activity (PRKCE (human)): 89.2%
- residual activity (AKT1 (human)): 102%
- residual activity (DSTYK (human)): 102%
- residual activity (MAPKAPK2 (human)): 104%
- residual activity (MAPKAPK5 (human)): 101%
- residual activity (PAK4 (human)): 103%
- residual activity (PTK2 (human)): 105%

Structure (SMILES): O=C1Nc2ccccc2/C1=C1\Nc2ccccc2\C1=N/O
- residual activity (DAPK2 (human)): 110%
- residual activity (JAK3 JH1 JH2 (human)): 51.5%
- residual activity (GRK7 (human)): 84.4%
- residual activity (PRKD2 (human)): 89%
- residual activity (HIPK1 (human)): 98.9%
- residual activity (FES (human)): 92.4%
- residual activity (BLK (human)): 75.1%
- residual activity (CDK2 CCNA2 (human)): 29.6%
- residual activity [1]: 24.3%
- residual activity (RPS6KA4 KD2 (human)): 58.7%
- residual activity (CAMK2B (human)): 87.5%
- residual activity (MELK (human)): 33.3%
- residual activity (FGFR1 (human)): 52.2%
- residual activity (NTRK1 (human)): 12.4%
- residual activity (STK11 (human)): 25.6%
- residual activity (MAPK3 (human)): 90.4%
- residual activity (RPS6KA5 KD2 (human)): 67%
- residual activity (PHKG2 (human)): 60.7%
- residual activity (DDR2 (human)): 101%
- residual activity (CDK5 CDK5R1 p25 (human)): 28.7%
- residual activity (FLT3 (human)): 2.16%
- residual activity (TEC (human)): 105%
- residual activity (JAK2 JH1 JH2 (human)): 84.6%
- residual activity (PDGFRB (human)): 72.6%
- residual activity (CSNK1G3 (human)): 81.9%
- residual activity (SLK (human)): 78.7%
- residual activity (PDGFRA (human)): 90.9%
- residual activity (TXK (human)): 66.7%
- residual activity (PDPK1 (human)): 93%
- residual activity (CAMKK1 (human)): 53.6%
- residual activity (MAP2K1 (human)): 99.6%
- residual activity (PIM3 (human)): 73.6%
- residual activity (LIMK1 (human)): 65.9%
- residual activity (PAK3 (human)): 92.6%
- residual activity (ITK (human)): 53%
- residual activity (PRKCE (human)): 96.5%
- residual activity (AKT1 (human)): 97.8%
- residual activity (DSTYK (human)): 108%
- residual activity (MAPKAPK2 (human)): 105%
- residual activity (MAPKAPK5 (human)): 101%
- residual activity (PAK4 (human)): 77.1%
- residual activity (PTK2 (human)): 65.8%

Structure (SMILES): COc1ccc(OC)c2c(=S)c3ccccc3[nH]c12
- residual activity (DAPK2 (human)): 94%
- residual activity (JAK3 JH1 JH2 (human)): 96.7%
- residual activity (GRK7 (human)): 102%
- residual activity (PRKD2 (human)): 88.1%
- residual activity (HIPK1 (human)): 107%
- residual activity (FES (human)): 102%
- residual activity (BLK (human)): 96.5%
- residual activity (CDK2 CCNA2 (human)): 88.6%
- residual activity [1]: 108%
- residual activity (RPS6KA4 KD2 (human)): 93.5%
- residual activity (CAMK2B (human)): 104%
- residual activity (MELK (human)): 96.6%
- residual activity (FGFR1 (human)): 89.6%
- residual activity (NTRK1 (human)): 87.5%
- residual activity (STK11 (human)): 84.4%
- residual activity (MAPK3 (human)): 103%
- residual activity (RPS6KA5 KD2 (human)): 86%
- residual activity (PHKG2 (human)): 94.6%
- residual activity (DDR2 (human)): 97.1%
- residual activity (CDK5 CDK5R1 p25 (human)): 85.4%
- residual activity (FLT3 (human)): 71%
- residual activity (TEC (human)): 147%
- residual activity (JAK2 JH1 JH2 (human)): 96%
- residual activity (PDGFRB (human)): 98.1%
- residual activity (CSNK1G3 (human)): 86.2%
- residual activity (SLK (human)): 80.2%
- residual activity (PDGFRA (human)): 85.6%
- residual activity (TXK (human)): 101%
- residual activity (PDPK1 (human)): 94.9%
- residual activity (CAMKK1 (human)): 108%
- residual activity (MAP2K1 (human)): 91.7%
- residual activity (PIM3 (human)): 93.1%
- residual activity (LIMK1 (human)): 108%
- residual activity (PAK3 (human)): 98%
- residual activity (ITK (human)): 101%
- residual activity (PRKCE (human)): 93.3%
- residual activity (AKT1 (human)): 89.7%
- residual activity (DSTYK (human)): 91.3%
- residual activity (MAPKAPK2 (human)): 94.6%
- residual activity (MAPKAPK5 (human)): 109%
- residual activity (PAK4 (human)): 102%
- residual activity (PTK2 (human)): 106%
